Source: US20240108598A1, “Danegaptide for Use in the Treatment or Prevention of a Kidney Disease” (CIANA THERAPEUTICS APS, priority 2021, published 2024)

Tested on: HK2 cells
Assay: Crystal violet assay
Assay type: cell-based, human
Conditions: 48 h
Experimental: HK2 cells were cultured in low glucose (5 mM) for 48 h, prior to being serum-starved overnight and subsequently treated with TGFβ1 (10 ng/mL)±danegaptide (50 nM-1 μM) for 48 h (FIG. 1A, n=3).
This simple assay was used to measure the relative density of adhered cells to multi-well dishes. Crystal Violet stains DNA and can be quantified colourmetrically after solubilisation. HK2 cells were seeded in 12-well plates and cultured in low glucose DMEM/F12 (5 mM) for 48 h, prior to overnight serum-starvation, then subsequently stimulated for 48 h with TGFβ1 (10 ng/ml)±danegaptide (50-1000 nM). The assay has been described previously (Hills, C. E.; Jin, T.; Siamantouras, E.; Liulssac, I. K. K.; Jefferson, K. P.; Squires, P. E. “Special K” and a Loss of Cell-To-Cell Adhesion in Proximal Tubule-Derived Epithelial Cells: Modulation of the Adherens Junction Complex by Ketamine. PLoS One 2013, 8, e71819). Briefly, cells were fixed using paraformaldehyde for 10 mins, washed with PBS and incubated for 10 mins at RT in a 1% crystal violet solution. After several more washes, the stain was solubilised using 1% SDS, and absorbance measured by a plate reader.

NCC(=O)N1C[C@H](NC(=O)c2ccccc2)C[C@H]1C(=O)O [danegaptide, (2S,4R)-1-(2-aminoacetyl)-4-benzamidopyrrolidine2-carboxylic acid]
crystal violet staining, of control (TGFβ1 10 ng/mL + danegaptide 50 nM): 98.2±1.9%
crystal violet staining, of control (TGFβ1 10 ng/mL + danegaptide 100 nM): 97.5±1.8%
crystal violet staining, of control (TGFβ1 10 ng/mL + danegaptide 1 μM): 85.8±5.3%
crystal violet staining, of control (danegaptide alone 50 nM): 98.3±2.5%
crystal violet staining, of control (danegaptide alone 100 nM): 99.6±2.7%
crystal violet staining, of control (danegaptide alone 1 μM): 98.5±2.2%
